Source: patent US20120157471A1, “BENZIMIDAZOLE DERIVATIVES” (PFIZER INC., priority 2009, published 2012)

Assays:
[1] = biological target: T1, human Smo (amino acids 181-787) (Homo sapiens, UniProt Q99835); assay: Smo radioligand competition binding assay (displacement of 3H-PF-03451358 from HEK293 membranes); settings: for inhibition at 0.05 µM: 0.05 μM test compound, displacement of 3H-PF-03451358, read-out: SMO % inh. @ 0.05 μM; for IC50: radioligand competition binding
T1 construct: expressed in transfected cells; membrane preparation
How it was run: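 Membranes (40 μg protein/well) from HEK293 expressing murine Igk-leader-fused Smo 181-787 incubated 2 h at room temperature with 3 nM 3H-PF-03451358 in Tris pH 7.5/NaCl/MgCl2/EDTA/BSA buffer; filter-bound counts by scintillation. Nonspecific binding with 30 μM cold PF-03451358; IC50 from four-parameter fit of % inhibition.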

Gli-Luc/MEF cells (Smo) = assay: Gli-Luc/MEF assay (Shh-stimulated luciferase reporter under the Gli response element); format: cell-based, mouse; settings: Mus musculus, MEF, 48 h
How it was run: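 Mouse Gli-Luc/MEF cells dosed with compound (3-fold series, […]) plus 2 μg/mL recombinant mouse Shh, then incubated 48 h at 37° C, 5% CO2. Bright-Glo luminescence read; IC50 calculated from inhibition of Shh-stimulated luciferase.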

T1 sequence (Q99835 181-787): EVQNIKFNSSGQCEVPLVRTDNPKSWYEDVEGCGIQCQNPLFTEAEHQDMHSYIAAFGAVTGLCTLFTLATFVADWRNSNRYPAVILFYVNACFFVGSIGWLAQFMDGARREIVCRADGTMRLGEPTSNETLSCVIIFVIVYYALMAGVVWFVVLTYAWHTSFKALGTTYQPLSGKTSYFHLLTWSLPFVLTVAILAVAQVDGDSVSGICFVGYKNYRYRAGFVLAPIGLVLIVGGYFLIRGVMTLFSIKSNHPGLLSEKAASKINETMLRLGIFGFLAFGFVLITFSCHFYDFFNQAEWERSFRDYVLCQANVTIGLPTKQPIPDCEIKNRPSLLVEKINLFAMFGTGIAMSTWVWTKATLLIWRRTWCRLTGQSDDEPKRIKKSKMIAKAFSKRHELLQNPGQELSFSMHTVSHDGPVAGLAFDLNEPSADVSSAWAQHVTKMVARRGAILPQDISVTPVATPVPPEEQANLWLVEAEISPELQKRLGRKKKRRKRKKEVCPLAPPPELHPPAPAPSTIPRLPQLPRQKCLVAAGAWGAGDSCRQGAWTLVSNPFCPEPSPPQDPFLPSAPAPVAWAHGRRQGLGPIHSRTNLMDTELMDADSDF

SMILES	inhibition at 0.05 µM [1] [%]	IC50 [1] [nM]	IC50 (Gli-Luc/MEF cells (Smo)) [nM]
Cn1c(-c2cc(N3CCC(N4CCCC4=O)CC3)ncc2Cl)nc2ccccc21 [Example A-81, 1-{1-[5-chloro-4-(1-methyl-1H-benzimidazol-2-yl)pyridin-2-yl]piperidin-4-yl}pyrrolidin-2-one]	91	24	10
Cn1c(-c2cc(N3C[C@H]4CC[C@@H](C3)N4)ncc2Cl)nc2ccccc21 [Example A-185, 2-{5-chloro-2-[(1R,5S)-3,8-diazabicyclo[3.2.1]oct-3-yl]pyridin-4-yl}-1-methyl-1H-benzimidazole]	91	20	14
Cn1c(-c2cc(N3C[C@@H]4[C@H](C3)[C@H]4NS(C)(=O)=O)ncc2Cl)nc2ccccc21 [Example A-8, N-{(1R,5S,6S)-3-[5-chloro-4-(1-methyl-1H-benzimidazol-2-yl)pyridin-2-yl]-3-azabicyclo[3.1.0]hex-6-yl}methanesulfonamide]	94	64	15
CNC(=O)N1CCN(c2nccc(-c3nc4ccccc4n3C)n2)CC1 [Example C-8, N-Methyl-4-[4-(1-methyl-1H-benzimidazol-2-yl)pyrimidin-2-yl]piperazine-1-carboxamide]	54	538	408
Cn1c(-c2cc(N3CCC(O)(c4ccncn4)C3)ncc2Cl)nc2ccccc21 (stereo not shown) [Example A-122, 1-[5-chloro-4-(1-methyl-1H-benzimidazol-2-yl)pyridin-2-yl]-3-pyrimidin-4-ylpyrrolidin-3-ol]	59	–	38
Cc1noc(C2CN(c3cc(-c4nc5ccccc5n4C)c(Cl)cn3)CCO2)n1 (stereo not shown) [Example A-64, 2-{5-chloro-2-[2-(3-methyl-1,2,4-oxadiazol-5-yl)morpholin-4-yl]pyridin-4-yl}-1-methyl-1H-benzimidazole]	95	28	7
CC(=O)N(C)C1CCN(c2cc(-c3nc4ccccc4n3C)c(Cl)cn2)C1 (stereo not shown) [Example A-183, N-{1-[5-chloro-4-(1-methyl-1H-benzimidazol-2-yl)pyridin-2-yl]pyrrolidin-3-yl}-N-methylacetamide]	89	81	65
Cn1c(-c2cc(N3CCOCC(CO)C3)ncc2Cl)nc2ccccc21 (stereo not shown) [Example A-47, {4-[5-chloro-4-(1-methyl-1H-benzimidazol-2-yl)pyridin-2-yl]-1,4-oxazepan-6-yl}methanol]	101	9	7
CC(=O)NC1CCN(c2cc(-c3nc4ccccc4n3C)c(Cl)cn2)C1 (stereo not shown) [Example A-42, N-{1-[5-chloro-4-(1-methyl-1H-benzimidazol-2-yl)pyridin-2-yl]pyrrolidin-3-yl}acetamide]	72	131	92
Cn1c(-c2nc(N3CCC(O)CC3)ncc2Cl)nc2ccccc21 [Example C-11, 1-[5-chloro-4-(1-methyl-1H-benzimidazol-2-yl)pyrimidin-2-yl]piperidin-4-ol]	98	16	24
Cn1c(-c2cc(N3CCC4(CC3)CNC(=O)O4)ncc2Cl)nc2ccccc21 [Example A-198, 8-[5-chloro-4-(1-methyl-1H-benzimidazol-2-yl)pyridin-2-yl]-1-oxa-3,8-diazaspiro[4.5]decan-2-one]	87	9	7
COC(=O)N1CCN(c2ncc(Cl)c(-c3nc4ccccc4n3C)n2)CC1 [Example C-5, Methyl 4-[5-chloro-4-(1-methyl-1H-benzimidazol-2-yl)pyrimidin-2-yl]piperazine-1-carboxylate]	96	14	9
Cn1c(-c2cc(N3CCC(CO)C3)ncc2Cl)nc2ccccc21 (stereo not shown) [Example A-102, {1-[5-chloro-4-(1-methyl-1H-benzimidazol-2-yl)pyridin-2-yl]pyrrolidin-3-yl}methanol]	80	91	40
CNC(=O)NC1CCN(c2cc(-c3nc4ccccc4n3C)c(Cl)cn2)C1 (stereo not shown) [Example A-176, 1-{1-[5-chloro-4-(1-methyl-1H-benzimidazol-2-yl)pyridin-2-yl]pyrrolidin-3-yl}-3-methylurea]	82	84	22
Cn1c(-c2cc(N3CCC(NS(C)(=O)=O)CC3)ncc2Cl)nc2ccccc21 [Example A-5, N-{1-[5-chloro-4-(1-methyl-1H-benzimidazol-2-yl)pyridin-2-yl]piperidin-4-yl}methanesulfonamide]	97	8	0.6
CCNC(=O)NC1CN(c2cc(-c3nc4ccccc4n3C)c(Cl)cn2)C1 [Example A-148, 1-{1-[5-chloro-4-(1-methyl-1H-benzimidazol-2-yl)pyridin-2-yl]azetidin-3-yl}-3-ethylurea]	95	21	9
Cn1c(-c2cc(N3CC[C@@H](O)[C@H](O)C3)ncc2Cl)nc2ccccc21 [Example A-63, (3R,4R)-1-[5-chloro-4-(1-methyl-1H-benzimidazol-2-yl)pyridin-2-yl]piperidine-3,4-diol]	95	25	18
Cn1c(-c2cc(N3CCN(C(=O)CCS(C)(=O)=O)CC3)ncc2F)nc2ccccc21 [Example D-18, 1-{4-[5-fluoro-4-(1-methyl-1H-benzimidazol-2-yl)pyridin-2-yl]piperazin-1-yl}-3-(methylsulfonyl)propan-1-one]	100	11	3
Cn1c(-c2cc(N3CCC(O)(c4cncnc4)C3)ncc2Cl)nc2ccccc21 (stereo not shown) [Example A-128, 1-[5-chloro-4-(1-methyl-1H-benzimidazol-2-yl)pyridin-2-yl]-3-pyrimidin-5-ylpyrrolidin-3-ol]	54	–	80
CC(=O)N1CCN(c2ccc(Cl)c(-c3nc4ccccc4n3C)n2)CC1 [Example B-2, 2-[6-(4-acetylpiperazin-1-yl)-3-chloropyridin-2-yl]-1-methyl-1H-benzimidazole]	95	18	32
Cn1c(-c2cc(NCCO)ncc2Cl)nc2ccccc21 [Example A-172, 2-{[5-chloro-4-(1-methyl-1H-benzimidazol-2-yl)pyridin-2-yl]amino}ethanol]	80	107	52
Cn1c(-c2cc(N3CCNCC3)ncc2Cl)nc2ccccc21 [Example A-23, 2-(5-chloro-2-piperazin-1-ylpyridin-4-yl)-1-methyl-1H-benzimidazole]	88	56	31
Cn1c(-c2cc(N3CCOCC(O)C3)ncc2Cl)nc2ccccc21 (stereo not shown) [Example A-53, 4-[5-chloro-4-(1-methyl-1H-benzimidazol-2-yl)pyridin-2-yl]-1,4-oxazepan-6-yl]	98	12	9
Cn1c(-c2cc(N3C[C@H]4CC[C@@H](C3)N4S(C)(=O)=O)ncc2Cl)nc2ccccc21 [Example A-175, 2-{5-chloro-2-[(1R,5S)-8-(methylsulfonyl)-3,8-diazabicyclo[3.2.1]oct-3-yl]pyridin-4-yl}-1-methyl-1H-benzimidazole]	97	17	9
CC(=O)N1CCN(c2ncc(Cl)c(-c3nc4ccccc4n3C)n2)CC1 [Example C-1, 2-[2-(4-Acetylpiperazin-1-yl)-5-chloropyrimidin-4-yl]-1-methyl-1H-benzimidazole]	96	12	7
Cn1c(-c2cc(N3CCC4(CCCC(=O)N4)CC3)ncc2Cl)nc2ccccc21 [Example A-57, 9-[5-chloro-4-(1-methyl-1H-benzimidazol-2-yl)pyridin-2-yl]-1,9-diazaspiro[5.5]undecan-2-one]	97	20	7
Cn1c(-c2ccnc(N3CCN(S(C)(=O)=O)CC3)c2)nc2ccccc21 [Example A-21, 1-methyl-2-{2-[4-(methylsulfonyl)piperazin-1-yl]pyridin-4-yl}-1H-benzimidazole]	78	152	90
Cn1c(-c2cc(N3CCOCC(Cc4ncccn4)C3)ncc2Cl)nc2ccccc21 (stereo not shown) [Example A-112, 2-{5-chloro-2-[6-(pyrimidin-2-ylmethyl)-1,4-oxazepan-4-yl]pyridin-4-yl}-1-methyl-1H-benzimidazole]	72	159	116
Cn1c(-c2cc(N3CCC(NS(C)(=O)=O)CC3)ncc2Cl)nc2cccnc21 [Example A-36, N-{1-[5-chloro-4-(3-methyl-3H-imidazo[4,5-b]pyridin-2-yl)pyridin-2-yl]piperidin-4-yl}methanesulfonamide]	93	23	12
CN(C1CCN(c2cc(-c3nc4ccccc4n3C)c(F)cn2)CC1)S(C)(=O)=O [Example D-10, N-{1-[5-fluoro-4-(1-methyl-1H-benzimidazol-2-yl)pyridin-2-yl]piperidin-4-yl}-N-methylmethanesulfonamlde]	102	7	4
